In PubChem BioAssay (NCI):
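Interpolation was linear, between the two tested concentrations surrounding the appropriate level; five concentrations were tested over 48 hours in 96-well plates. The concentration for 50% growth inhibition is given as GI50. TGI is the concentration that stops growth completely.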

Assays:
Assay in all cases: NCI tumour cell line growth inhibition, 48 h
SK-OV-3 ovarian = tested on: SK-OV-3 ovarian
K-562 leukemia = tested on: K-562 leukemia
TK-10 renal = tested on: TK-10 renal
T-47D breast = tested on: T-47D breast
RXF 393 renal = tested on: RXF 393 renal
COLO 205 colon = tested on: COLO 205 colon
MDA-MB-231 breast = tested on: MDA-MB-231 breast
SNB-75 CNS = tested on: SNB-75 CNS
U251 CNS = tested on: U251 CNS
SW-620 colon = tested on: SW-620 colon
UACC-62 melanoma = tested on: UACC-62 melanoma
OVCAR-8 ovarian = tested on: OVCAR-8 ovarian
A549 NSCLC = tested on: A549 NSCLC
SR leukemia = tested on: SR leukemia
SN12C renal = tested on: SN12C renal
SK-MEL-5 melanoma = tested on: SK-MEL-5 melanoma
UO-31 renal = tested on: UO-31 renal
SK-MEL-28 melanoma = tested on: SK-MEL-28 melanoma
ACHN renal = tested on: ACHN renal
HOP-62 NSCLC = tested on: HOP-62 NSCLC
MOLT-4 leukemia = tested on: MOLT-4 leukemia
UACC-257 melanoma = tested on: UACC-257 melanoma
BT-549 breast = tested on: BT-549 breast
KM12 colon = tested on: KM12 colon
786-0 renal = tested on: 786-0 renal
HCT-116 colon = tested on: HCT-116 colon
NCI-H226 lung = tested on: NCI-H226 lung
M14 melanoma = tested on: M14 melanoma
LOX IMVI melanoma = tested on: LOX IMVI melanoma
NCI-H522 lung = tested on: NCI-H522 lung
NCI/ADR-RES ovarian = tested on: NCI/ADR-RES ovarian
HT29 colon = tested on: HT29 colon
HCT-15 colon = tested on: HCT-15 colon
NCI-H23 lung = tested on: NCI-H23 lung
DU-145 prostate = tested on: DU-145 prostate
HOP-92 NSCLC = tested on: HOP-92 NSCLC
HS 578T breast = tested on: HS 578T breast
IGROV1 ovarian = tested on: IGROV1 ovarian
OVCAR-3 ovarian = tested on: OVCAR-3 ovarian
SNB-19 CNS = tested on: SNB-19 CNS
SF-539 CNS = tested on: SF-539 CNS
A498 renal = tested on: A498 renal
OVCAR-4 ovarian = tested on: OVCAR-4 ovarian
MALME-3M melanoma = tested on: MALME-3M melanoma
MDA-MB-468 breast = tested on: MDA-MB-468 breast
CAKI-1 renal = tested on: CAKI-1 renal
MDA-MB-435 = tested on: MDA-MB-435
MCF7 breast = tested on: MCF7 breast
SF-295 CNS = tested on: SF-295 CNS
HL-60(TB) leukemia = tested on: HL-60(TB) leukemia
EKVX NSCLC = tested on: EKVX NSCLC
SK-MEL-2 melanoma = tested on: SK-MEL-2 melanoma
OVCAR-5 ovarian = tested on: OVCAR-5 ovarian
PC-3 prostate = tested on: PC-3 prostate
HCC-2998 colon = tested on: HCC-2998 colon
RPMI-8226 leukemia = tested on: RPMI-8226 leukemia
SF-268 CNS = tested on: SF-268 CNS
CCRF-CEM leukemia = tested on: CCRF-CEM leukemia
NCI-H460 lung = tested on: NCI-H460 lung

In the case of `COc1ccc(C(=O)/C=C/c2cc(C(F)(F)F)cc(C(F)(F)F)c2)cc1S(N)(=O)=O`, the GI50 (SK-OV-3 ovarian) is reported as 3650 nM, the TGI (SK-OV-3 ovarian) is reported as 16300 nM and the GI50 (K-562 leukemia) is reported as 788 nM. The TGI (K-562 leukemia) was greater than 100000 nM, the GI50 (TK-10 renal) was 2050 nM and the TGI (TK-10 renal) was 3860 nM. For the same compound, the GI50 (T-47D breast) was 1690 nM, the TGI (T-47D breast) was 3550 nM and the GI50 (RXF 393 renal) was 1760 nM. It also gave a TGI (RXF 393 renal) of 3340 nM, a GI50 (COLO 205 colon) of 2020 nM and a TGI (COLO 205 colon) of 3940 nM. For the same compound, the GI50 (MDA-MB-231 breast) was 1570 nM, the TGI (MDA-MB-231 breast) was 3110 nM and the GI50 (SNB-75 CNS) was 1380 nM. The TGI (SNB-75 CNS) was 3330 nM, the GI50 (U251 CNS) was 1290 nM and the TGI (U251 CNS) was 2620 nM. For the same compound, the GI50 (SW-620 colon) was 1030 nM, the TGI (SW-620 colon) was 2440 nM and the GI50 (UACC-62 melanoma) was 1510 nM. The TGI (UACC-62 melanoma) was 3000 nM, the GI50 (OVCAR-8 ovarian) was 1490 nM and the TGI (OVCAR-8 ovarian) was 3870 nM. The GI50 (A549 NSCLC) was 1830 nM, the TGI (A549 NSCLC) was 5640 nM and the GI50 (SR leukemia) was 498 nM. For the same compound, the TGI (SR leukemia) was greater than 100000 nM, the GI50 (SN12C renal) was 1470 nM and the TGI (SN12C renal) was 2860 nM. For the same compound, the GI50 (SK-MEL-5 melanoma) was 1730 nM, the TGI (SK-MEL-5 melanoma) was 3150 nM and the GI50 (UO-31 renal) was 1450 nM. For the same compound, the TGI (UO-31 renal) was 2760 nM, the GI50 (SK-MEL-28 melanoma) was 1670 nM and the TGI (SK-MEL-28 melanoma) was 3070 nM. For the same compound, the GI50 (ACHN renal) was 1540 nM, the TGI (ACHN renal) was 2910 nM and the GI50 (HOP-62 NSCLC) was 2220 nM. The TGI (HOP-62 NSCLC) was 4400 nM, the GI50 (MOLT-4 leukemia) was 1790 nM and the TGI (MOLT-4 leukemia) was 9160 nM. The GI50 (UACC-257 melanoma) was 1510 nM, the TGI (UACC-257 melanoma) was 3180 nM and the GI50 (BT-549 breast) was 2270 nM. The TGI (BT-549 breast) was 3930 nM, the GI50 (KM12 colon) was 2070 nM and the TGI (KM12 colon) was 4920 nM. For the same compound, the GI50 (786-0 renal) was 1640 nM, the TGI (786-0 renal) was 3320 nM and the GI50 (HCT-116 colon) was 655 nM. It also gave a TGI (HCT-116 colon) of 2300 nM, a GI50 (NCI-H226 lung) of 2140 nM and a TGI (NCI-H226 lung) of 4590 nM. For the same compound, the GI50 (M14 melanoma) was 1920 nM, the TGI (M14 melanoma) was 4850 nM and the GI50 (LOX IMVI melanoma) was 573 nM. For the same compound, the TGI (LOX IMVI melanoma) was 1780 nM, the GI50 (NCI-H522 lung) was 1560 nM and the TGI (NCI-H522 lung) was 3240 nM. It also gave a GI50 (NCI/ADR-RES ovarian) of 1510 nM, a TGI (NCI/ADR-RES ovarian) of 3720 nM and a GI50 (HT29 colon) of 1260 nM. It also gave a TGI (HT29 colon) of 2770 nM, a GI50 (HCT-15 colon) of 893 nM and a TGI (HCT-15 colon) of 2380 nM. For the same compound, the GI50 (NCI-H23 lung) was 1550 nM, the TGI (NCI-H23 lung) was 3010 nM and the GI50 (DU-145 prostate) was 2050 nM. The TGI (DU-145 prostate) was 4830 nM, the GI50 (HOP-92 NSCLC) was 1980 nM and the TGI (HOP-92 NSCLC) was 5800 nM. The GI50 (HS 578T breast) was 2680 nM, the TGI (HS 578T breast) was 9860 nM and the GI50 (IGROV1 ovarian) was 1740 nM. The TGI (IGROV1 ovarian) was 3320 nM, the GI50 (OVCAR-3 ovarian) was 1560 nM and the TGI (OVCAR-3 ovarian) was 3310 nM. The GI50 (SNB-19 CNS) was 1600 nM, the TGI (SNB-19 CNS) was 2980 nM and the GI50 (SF-539 CNS) was 1680 nM. For the same compound, the TGI (SF-539 CNS) was 3070 nM, the GI50 (A498 renal) was 16900 nM and the TGI (A498 renal) was 30500 nM. It also gave a GI50 (OVCAR-4 ovarian) of 1850 nM, a TGI (OVCAR-4 ovarian) of 4440 nM and a GI50 (MALME-3M melanoma) of 1810 nM. The TGI (MALME-3M melanoma) was 3330 nM, the GI50 (MDA-MB-468 breast) was 1540 nM and the TGI (MDA-MB-468 breast) was 2910 nM. The GI50 (CAKI-1 renal) was 1580 nM, the TGI (CAKI-1 renal) was 3360 nM and the GI50 (MDA-MB-435) was 1350 nM. It also gave a TGI (MDA-MB-435) of 2970 nM, a GI50 (MCF7 breast) of 439 nM and a TGI (MCF7 breast) of 1680 nM. For the same compound, the GI50 (SF-295 CNS) was 1700 nM, the TGI (SF-295 CNS) was 3100 nM and the GI50 (HL-60(TB) leukemia) was 1750 nM. For the same compound, the TGI (HL-60(TB) leukemia) was 6290 nM, the GI50 (EKVX NSCLC) was 1580 nM and the TGI (EKVX NSCLC) was 2970 nM. The GI50 (SK-MEL-2 melanoma) was 1740 nM, the TGI (SK-MEL-2 melanoma) was 3250 nM and the GI50 (OVCAR-5 ovarian) was 1840 nM. For the same compound, the TGI (OVCAR-5 ovarian) was 3360 nM, the GI50 (PC-3 prostate) was 2190 nM and the TGI (PC-3 prostate) was 5990 nM. The GI50 (HCC-2998 colon) was 1540 nM, the TGI (HCC-2998 colon) was 2870 nM and the GI50 (RPMI-8226 leukemia) was 558 nM. The TGI (RPMI-8226 leukemia) was greater than 100000 nM, the GI50 (SF-268 CNS) was 2380 nM and the TGI (SF-268 CNS) was 7480 nM. It also gave a GI50 (CCRF-CEM leukemia) of 299 nM, a TGI (CCRF-CEM leukemia) greater than 100000 nM and a GI50 (NCI-H460 lung) of 1560 nM. It also gave a TGI (NCI-H460 lung) of 3280 nM.
